Measurements as given in patent publication US20230107642A1 (Erasca, Inc., priority 2020, published 2023).

The molecules below were run against T1, K-Ras G12C (Homo sapiens, UniProt P01116, G12C) (assay: CAF assay (% CAF; method in Example 7, not in this part)). Conditions: 10 uM compound, 1 h incubation.
T1 construct: This protein contained 188 amino acids in total, including an N-terminal 6-Histidine tag; made in house; host or cells: E. coli BL21
Type: binding

Structure (SMILES)	% CAF @ 10 uM, 1h [%]
C=CC(=O)N1CCN(c2nc(=O)n3c4c(c(-c5cc(Cl)c(F)cc5F)c(Cl)cc24)SC[C@H](OC)C3)[C@@H](C)C1 [Example 541, (3R)-8-((S)-4-acryloyl-2-methylpiperazin-1-yl)-10-chloro-11-(5-chloro-2,4-difluorophenyl)-3-methoxy-3,4-dihydro-2H,6H-[1,4]thiazepino[2,3,4-ij]quinazolin-6-one]	96
C=CC(=O)N1[C@H](C)CN(c2nc(=O)n3c4c(c(-c5cc(Cl)c(F)cc5F)c(Cl)cc24)SC[C@H](OC)C3)C[C@@H]1C [Example 542, (3R)-8-((3S,5R)-4-acryloyl-3,5-dimethylpiperazin-1-yl)-10-chloro-11-(5-chloro-2,4-difluorophenyl)-3-methoxy-3,4-dihydro-2H,6H-[1,4]thiazepino[2,3,4-ij]quinazolin-6-one]	96
C=CC(=O)N1CCN(c2nc(=O)n3c4c(c(-c5cc(Cl)c(F)cc5F)c(Cl)cc24)SC[C@@H](OC)C3)CC1 [Example 543, (3S)-8-(4-acryloylpiperazin-1-yl)-10-chloro-11-(5-chloro-2,4-difluorophenyl)-3-methoxy-3,4-dihydro-2H,6H-[1,4]thiazepino[2,3,4-ij]quinazolin-6-one]	97
C=CC(=O)N1C[C@H](C)N(c2nc(=O)n3c4c(c(-c5ccc(F)cc5F)c(Cl)cc24)SC[C@@H]3CN2CCN(CC(F)F)CC2)C[C@H]1C [Example 550, (3S)-7-((2S,5R)-4-acryloyl-2,5-dimethylpiperazin-1-yl)-9-chloro-3-((4-(2,2-difluoroethyl)piperazin-1-yl)methyl)-10-(2,4-difluorophenyl)-2H-[1,4]thiazino[2,3,4-ij]quinazolin-5(3H)-one]	91.6
C=CC(=O)N1C[C@H](C)N(c2nc(=O)n3c4c(c(-c5ccc(F)cc5F)c(Cl)cc24)SC[C@@H]3CN2CCN(C3CC3)CC2)C[C@H]1C [Example 551, (3S)-7-((2S,5R)-4-acryloyl-2,5-dimethylpiperazin-1-yl)-9-chloro-3-((4-cyclopropylpiperazin-1-yl)methyl)-10-(2,4-difluorophenyl)-2H-[1,4]thiazino[2,3,4-ij]quinazolin-5(3H)-one]	53.4
C=CC(=O)N1C[C@H](C)N(c2nc(=O)n3c4c(c(-c5ccc(F)cc5)c(Cl)cc24)SC[C@@H]3COCCOC)C[C@H]1C [Example 558, (S)-7-((2S,5R)-4-acryloyl-2,5-dimethylpiperazin-1-yl)-9-chloro-10-(4-fluorophenyl)-3-((2-methoxyethoxy)methyl)-2H-[1,4]thiazino[2,3,4-ij]quinazolin-5(3H)-one]	64.3
C=CC(=O)N1[C@H](C)CN(c2nc(=O)n3c4c(c(-c5cc(Cl)c(F)cc5F)c(C(F)(F)F)cc24)SC[C@@H]3COC)C[C@@H]1C [Example 559, (3S)-7-((3S,5R)-4-acryloyl-3,5-dimethylpiperazin-1-yl)-10-(5-chloro-2,4-difluorophenyl)-3-(methoxymethyl)-9-(trifluoromethyl)-2H-[1,4]thiazino[2,3,4-ij]quinazolin-5(3H)-one]	83.8
C=CC(=O)N1[C@H](C)CN(c2nc(=O)n3c4c(c(-c5ccc(F)cc5F)c(C(F)(F)F)cc24)SC[C@@H]3CN2C[C@@H]3C[C@H]2CO3)C[C@@H]1C [Example 560, (3S)-3-(((1S,4S)-2-oxa-5-azabicyclo[2.2.1]heptan-5-yl)methyl)-7-((3S,5R)-4-acryloyl-3,5-dimethylpiperazin-1-yl)-10-(2,4-difluorophenyl)-9-(trifluoromethyl)-2,3-dihydro-5H-[1,4]thiazino[2,3,4-ij]quinazolin-5-one]	95.6
C=CC(=O)N1C[C@H](C)N(c2nc(=O)n3c4c(c(-c5ccc(F)cc5F)c(C(F)(F)F)cc24)SC[C@@H]3CN2CCN(CC#N)CC2)C[C@H]1C [Example 561, 2-(4-(((3S)-7-((2S,5R)-4-acryloyl-2,5-dimethylpiperazin-1-yl)-10-(2,4-difluorophenyl)-5-oxo-9-(trifluoromethyl)-3,5-dihydro-2H-[1,4]thiazino[2,3,4-ij]quinazolin-3-yl)methyl)piperazin-1-yl)acetonitrile]	10.4
C=CC(=O)N1C[C@H](C)N(c2nc(=O)n3c4c(c(-c5ccc(F)cc5F)c(C(F)(F)F)cc24)SC[C@@H]3CN2CCN(CC(F)F)CC2)C[C@H]1C [Example 562, (3S)-7-((2S,5R)-4-acryloyl-2,5-dimethylpiperazin-1-yl)-3-((4-(2,2-difluoroethyl)piperazin-1-yl)methyl)-10-(2,4-difluorophenyl)-9-(trifluoromethyl)-2H-[1,4]thiazino[2,3,4-ij]quinazolin-5(3H)-one]	83.6
C=CC(=O)N1[C@H](C)CN(c2nc(=O)n3c4c(c(-c5cc(Cl)c(F)cc5F)c(C(F)(F)F)cc24)SC[C@@H]3COCOC)C[C@@H]1C [Example 567, (3S)-7-((3S,5R)-4-acryloyl-3,5-dimethylpiperazin-1-yl)-10-(5-chloro-2,4-difluorophenyl)-3-((methoxymethoxy)methyl)-9-(trifluoromethyl)-2H-[1,4]thiazino[2,3,4-ij]quinazolin-5(3H)-one]	64.4
C=CC(=O)N1[C@H](C)CN(c2nc(=O)n3c4c(c(-c5cc(Cl)c(F)cc5F)c(C(F)(F)F)cc24)SC[C@@H]3CO)C[C@@H]1C [Example 568, (3S)-7-((3S,5R)-4-acryloyl-3,5-dimethylpiperazin-1-yl)-10-(5-chloro-2,4-difluorophenyl)-3-(hydroxymethyl)-9-(trifluoromethyl)-2H-[1,4]thiazino[2,3,4-ij]quinazolin-5(3H)-one]	52.3
C=CC(=O)N1C2CC(=O)CC1CN(c1nc(=O)n3c4c(c(-c5ccc(F)cc5F)c(C(F)(F)F)cc14)SC[C@@H]3COC)C2 [Example 571, (3S)-7-(9-acryloyl-7-oxo-3,9-diazabicyclo[3.3.1]nonan-3-yl)-10-(2,4-difluorophenyl)-3-(methoxymethyl)-9-(trifluoromethyl)-2H-[1,4]thiazino[2,3,4-ij]quinazolin-5(3H)-one]	95.2
C=CC(=O)N1CCN(c2nc(=O)n3c4c(c(-c5cc(Cl)c(F)cc5F)c(C(F)(F)F)cc24)SC[C@@H]3COC)CC1 [Example 572, (3S)-7-(4-acryloylpiperazin-1-yl)-10-(5-chloro-2,4-difluorophenyl)-3-(methoxymethyl)-9-(trifluoromethyl)-2H-[1,4]thiazino[2,3,4-ij]quinazolin-5(3H)-one]	93.6

More lines, now with the values ahead:

% CAF @ 10 uM, 1h [%]	Structure (SMILES)
76.4	C=CC(=O)N1C[C@H](C)N(c2nc(=O)n3c4c(c(-c5ccc(F)cc5)c(Cl)cc24)SC[C@@H]3COC)C[C@H]1C [Example 573, (S)-7-((2S,5R)-4-acryloyl-2,5-dimethylpiperazin-1-yl)-9-chloro-10-(4-fluorophenyl)-3-(methoxymethyl)-2H-[1,4]thiazino[2,3,4-ij]quinazolin-5(3H)-one]
83.2	C=CC(=O)N1C[C@H](C)N(c2nc(=O)n3c4c(c(-c5ccc(F)cc5)c(C(F)(F)F)cc24)SC[C@@H]3CN2CCN(CC(F)F)CC2)C[C@H]1C [Example 574, (S)-7-((2S,5R)-4-acryloyl-2,5-dimethylpiperazin-1-yl)-3-((4-(2,2-difluoroethyl)piperazin-1-yl)methyl)-10-(4-fluorophenyl)-9-(trifluoromethyl)-2H-[1,4]thiazino[2,3,4-ij]quinazolin-5(3H)-one]
89.5	C=CC(=O)N1C[C@H](C)N(c2nc(=O)n3c4c(c(-c5ccc(F)cc5F)c(C(F)(F)F)cc24)SC[C@@H]3CN2CCN(CC(N)=O)CC2)C[C@H]1C [Example 575, 2-(4-(((3S)-7-((2S,5R)-4-acryloyl-2,5-dimethylpiperazin-1-yl)-10-(2,4-difluorophenyl)-5-oxo-9-(trifluoromethyl)-3,5-dihydro-2H-[1,4]thiazino[2,3,4-ij]quinazolin-3-yl)methyl)piperazin-1-yl)acetamide]
88	C=CC(=O)N1CCN(c2nc(=O)n3c4c(c(-c5cc(Cl)c(F)cc5F)c(C(F)(F)F)cc24)SC[C@@H](OC)C3)CC1 [Example 582, (3S)-8-(4-acryloylpiperazin-1-yl)-11-(5-chloro-2,4-difluorophenyl)-3-methoxy-10-(trifluoromethyl)-3,4-dihydro-2H,6H-[1,4]thiazepino[2,3,4-ij]quinazolin-6-one]
91	C=CC(=O)N1CCN(c2nc(=O)n3c4c(c(-c5cc(Cl)c(F)cc5F)c(C(F)(F)F)cc24)SC[C@@H](OC)C3)[C@@H](C)C1 [Example 583, (3S)-8-((S)-4-acryloyl-2-methylpiperazin-1-yl)-11-(5-chloro-2,4-difluorophenyl)-3-methoxy-10-(trifluoromethyl)-3,4-dihydro-2H,6H-[1,4]thiazepino[2,3,4-ij]quinazolin-6-one]
97	C=CC(=O)N1[C@H](C)CN(c2nc(=O)n3c4c(c(-c5ccc(F)cc5)c(C(F)(F)F)cc24)SC[C@H](OC)C3)C[C@@H]1C [Example 584, (R)-8-((3S,5R)-4-acryloyl-3,5-dimethylpiperazin-1-yl)-11-(4-fluorophenyl)-3-methoxy-10-(trifluoromethyl)-3,4-dihydro-2H,6H-[1,4]thiazepino[2,3,4-ij]quinazolin-6-one]
97	C=CC(=O)N1[C@H](C)CN(c2nc(=O)n3c4c(c(-c5ccc(F)cc5)c(C(F)(F)F)cc24)SC[C@@H](OC)C3)C[C@@H]1C [Example 585, (S)-8-((3S,5R)-4-acryloyl-3,5-dimethylpiperazin-1-yl)-11-(4-fluorophenyl)-3-methoxy-10-(trifluoromethyl)-3,4-dihydro-2H,6H-[1,4]thiazepino[2,3,4-ij]quinazolin-6-one]
40	C=CC(=O)N1[C@H](C)CN(c2nc(=O)n3c4c(c(-c5ccc(F)cc5F)c(C(F)(F)F)cc24)SC[C@H](N(C)C)C3)C[C@@H]1C [Example 586, (3R)-8-((3S,5R)-4-acryloyl-3,5-dimethylpiperazin-1-yl)-11-(2,4-difluorophenyl)-3-(dimethylamino)-10-(trifluoromethyl)-3,4-dihydro-2H,6H-[1,4]thiazepino[2,3,4-ij]quinazolin-6-one]
